Measurements reported in US8999952B2, “Aripiprazole complex formulation and method” (Otsuka Pharmaceutical Co., Ltd., priority 2002, dated 2015).

Legend:
[1] = tissue irritation at the intramuscular injection site; format: in vivo; settings: intramuscular (IM) injectable solution in water-miscible co-solvent and water-immiscible solvent/co-solvent systems
[2] = aqueous solubility; format: physicochemical; settings: water; at room temperature

Compound: O=C1CCc2ccc(OCCCCN3CCN(c4cccc(Cl)c4Cl)CC3)cc2N1 [Aripiprazole]
- tissue irritation at the muscular site [1]: unacceptable (moderate to severe) tissue irritation
- solubility [2]: < 1 µg/mL
